Assay results reported in ChEMBL document CHEMBL3045012, “Quinoline-based azetidinone and thiazolidinone analogues as antimicrobial and antituberculosis agents” (2013).
Converted amounts (≈) assume the structure as drawn.

Experiments:
Format in all cases: functional
[1] = system: Mycobacterium tuberculosis; assay: Antituberculosis activity against Mycobacterium tuberculosis H37Rv assessed as growth inhibition after 12 to 28 days by L-J MIC method; settings: for MIC: Mycobacterium tuberculosis, H37Rv
[2] = system: Candida albicans; assay: Antimicrobial activity against Candida albicans MTCC 183 assessed as growth inhibition after 48 hr by agar streak dilution technique; settings: MTCC 183, 48 h
[3] = system: Aspergillus niger; assay: Antimicrobial activity against Aspergillus niger MTCC 282 assessed as growth inhibition after 48 hr by agar streak dilution technique; settings: MTCC 282, 48 h
[4] = system: Pseudomonas aeruginosa; assay: Antimicrobial activity against Pseudomonas aeruginosa MTCC 741 assessed as growth inhibition after 24 hr by agar streak dilution technique; settings: MTCC 741, 24 h
[5] = system: Escherichia coli; assay: Antimicrobial activity against Escherichia coli MTCC 739 assessed as growth inhibition after 24 hr by agar streak dilution technique; settings: MTCC 739, 24 h
[6] = system: Bacillus subtilis; assay: Antimicrobial activity against Bacillus subtilis MTCC 430 assessed as growth inhibition after 24 hr by agar streak dilution technique; settings: MTCC 430, 24 h
[7] = system: Staphylococcus aureus; assay: Antimicrobial activity against Staphylococcus aureus MTCC 96 assessed as growth inhibition after 24 hr by agar streak dilution technique; settings: MTCC 96, 24 h
[8] = system: Candida albicans; assay: Antimicrobial activity against Candida albicans MTCC 183 assessed as diameter of growth inhibition zone after 24 hr by paper disk diffusion technique; further: test concentration or dose not given here
[9] = system: Aspergillus niger; assay: Antimicrobial activity against Aspergillus niger MTCC 282 assessed as diameter of growth inhibition zone after 24 hr by paper disk diffusion technique; further: test concentration or dose not given here
[10] = system: Pseudomonas aeruginosa; assay: Antimicrobial activity against Pseudomonas aeruginosa MTCC 741 assessed as diameter of growth inhibition zone after 24 hr by paper disk diffusion technique; further: test concentration or dose not given here
[11] = system: Escherichia coli; assay: Antimicrobial activity against Escherichia coli MTCC 739 assessed as diameter of growth inhibition zone after 24 hr by paper disk diffusion technique; further: test concentration or dose not given here
[12] = system: Bacillus subtilis; assay: Antimicrobial activity against Bacillus subtilis MTCC 430 assessed as diameter of growth inhibition zone after 24 hr by paper disk diffusion technique; further: test concentration or dose not given here
[13] = system: Staphylococcus aureus; assay: Antimicrobial activity against Staphylococcus aureus MTCC 96 assessed as diameter of growth inhibition zone after 24 hr by paper disk diffusion technique; further: test concentration or dose not given here

Structure (SMILES)	growth inhibition (GI) [1]	MIC [1]	MIC [2]	MIC [3]	MIC [4]	MIC [5]	MIC [6]	MIC [7]	diameter of the inhibition zone (DIZ) [8]	diameter of the inhibition zone (DIZ) [9]	diameter of the inhibition zone (DIZ) [10]	diameter of the inhibition zone (DIZ) [11]	diameter of the inhibition zone (DIZ) [12]	diameter of the inhibition zone (DIZ) [13]
O=C1C(Cl)C(c2cc3ccccc3nc2Cl)N1c1ccccc1 (centres undefined)	90%	500 µg/mL (≈ 1460 µM)	100 µg/mL (≈ 291 µM)	100 µg/mL (≈ 291 µM)	100 µg/mL (≈ 291 µM)	100 µg/mL (≈ 291 µM)	100 µg/mL (≈ 291 µM)	100 µg/mL (≈ 291 µM)	<10 mm	<10 mm	<10 mm	<10 mm	<10 mm	<10 mm
Cc1ccccc1N1C(=O)C(Cl)C1c1cc2ccccc2nc1Cl (centres undefined)	91%	1000 µg/mL (≈ 2800 µM)	100 µg/mL (≈ 280 µM)	100 µg/mL (≈ 280 µM)	100 µg/mL (≈ 280 µM)	100 µg/mL (≈ 280 µM)	100 µg/mL (≈ 280 µM)	100 µg/mL (≈ 280 µM)	<10 mm	<10 mm	<10 mm	<10 mm	<10 mm	16 mm
Cc1cccc(N2C(=O)C(Cl)C2c2cc3ccccc3nc2Cl)c1 (centres undefined)	90%	500 µg/mL (≈ 1400 µM)	100 µg/mL (≈ 280 µM)	100 µg/mL (≈ 280 µM)	100 µg/mL (≈ 280 µM)	100 µg/mL (≈ 280 µM)	100 µg/mL (≈ 280 µM)	100 µg/mL (≈ 280 µM)	<10 mm	20 mm	16 mm	14 mm	18 mm	<10 mm
Cc1ccc(N2C(=O)C(Cl)C2c2cc3ccccc3nc2Cl)cc1 (centres undefined)	94%	200 µg/mL (≈ 560 µM)	100 µg/mL (≈ 280 µM)	100 µg/mL (≈ 280 µM)	100 µg/mL (≈ 280 µM)	100 µg/mL (≈ 280 µM)	100 µg/mL (≈ 280 µM)	100 µg/mL (≈ 280 µM)	19 mm	<10 mm	13 mm	15 mm	16 mm	17 mm
O=C1C(Cl)C(c2cc3ccccc3nc2Cl)N1c1ccccc1[N+](=O)[O-] (centres undefined)	92%	250 µg/mL (≈ 644 µM)	100 µg/mL (≈ 258 µM)	50 µg/mL (≈ 129 µM)	62.5 µg/mL (≈ 161 µM)	100 µg/mL (≈ 258 µM)	62.5 µg/mL (≈ 161 µM)	100 µg/mL (≈ 258 µM)	20 mm	22 mm	21 mm	22 mm	21 mm	20 mm
O=C1C(Cl)C(c2cc3ccccc3nc2Cl)N1c1cccc([N+](=O)[O-])c1 (centres undefined)	93%	100 µg/mL (≈ 258 µM)	100 µg/mL (≈ 258 µM)	50 µg/mL (≈ 129 µM)	50 µg/mL (≈ 129 µM)	62.5 µg/mL (≈ 161 µM)	50 µg/mL (≈ 129 µM)	25 µg/mL (≈ 64.4 µM)	19 mm	26 mm	22 mm	22 mm	21 mm	25 mm
